In assay [1] the test system is RAW264.7. The assay is described as follows: Antiinflammatory activity in mouse RAW264.7 cells assessed as reduction in LPS-induced NO production preincubated for 1 hr followed by LPS stimulation measured after 18 hrs by Griess assay. It counts as functional, cell-based. (In general: Nitrite, measured by Griess reagent, commonly stands in for NO production.)
Assay [2] has as its system SW480. The assay is described as follows: Cytotoxicity against human SW480 cells assessed as reduction in cell viability after 48 hrs by MTS assay. In kind it is functional, cell-based. The conditions noted are these: SW480, 48 h.
For assay [3], the system named is MCF7. The assay is described as follows: Cytotoxicity against human MCF7 cells assessed as reduction in cell viability after 48 hrs by MTS assay. It counts as functional, cell-based. The settings on record: MCF7, 48 h. A general note: Tetrazolium dyes change colour on reduction, which living cells bring about.
Assay [4] deals with SMMC-7721. The assay is described as follows: Cytotoxicity against human SMMC7721 cells assessed as reduction in cell viability after 48 hrs by MTS assay. It counts as functional, cell-based. The settings on record: SMMC-7721, 48 h.
In assay [5] the test system is RAW264.7. The assay can be described thus: Antiinflammatory activity in mouse RAW264.7 cells assessed as reduction in LPS-induced NO production at 25 ug/ml preincubated for 1 hr followed by LPS stimulation measured after 18 hrs by DAF-FMDA probe based flow cytometry. It counts as functional, cell-based. (A flow cytometer gives signals particle by particle.)
Assay [6] concerns RAW264.7. The assay can be described thus: Inhibition of LPS-stimulated ROS production in mouse RAW264.7 cells at 25 ug/ml preincubated for 1 hr followed by LPS stimulation measured after 18 hrs by DCFH-DA probe based flow cytometry. In kind it is functional, cell-based.
Assay [7] deals with A549. The assay is described as follows: Cytotoxicity against human A549 cells assessed as reduction in cell viability after 48 hrs by MTS assay. It counts as functional, cell-based. The conditions noted are these: A549, 48 h.
Assay [8] has as its system HL-60. The assay is described as follows: Cytotoxicity against human HL60 cells assessed as reduction in cell viability after 48 hrs by MTS assay. It counts as functional, cell-based. The conditions noted are these: HL-60, 48 h.
The nature of assay [9]: Antioxidant activity assessed as DPPH radical scavenging activity at 50 uM after 1 hr. In kind it is functional.
Assay [10] in a line: Antioxidant activity assessed as DPPH radical scavenging activity at 25 ug/ml after 1 hr. It counts as functional.
Assay [11] relates to RAW264.7. The assay can be described thus: Antiinflammatory activity in mouse RAW264.7 cells assessed as reduction in LPS-induced NO production at 25 uM preincubated for 1 hr followed by LPS stimulation measured after 18 hrs by Griess assay. In kind it is functional, cell-based.

Activity calls are given as the source filed them. No cut-off for these calls is given here. Peptide text beside a SMILES is read from it. * marks the point of attachment. Cbz = O=C(OCc1ccccc1)*

As for `COc1cc(CCc2ccc(O)cc2)cc(O)c1-c1c(OC)cc([C@@H]2OO[C@H]2CO)cc1OC`, the half-maximal inhibitory concentration (IC50) (in general, the concentration needed to halve the response being measured) in assay [1] was 21.4 µM; in assay [2], greater than 40 µM; in assay [3], 19.4 µM; in assay [4] it was 34.4 µM; in assay [7], 20.8 µM; in assay [8] it was 23.5 µM. Further, the outcome in [5] was inactive. Besides, in assay [6], the inhibition result was “Active”. In addition, the Activity in [9] amounted to 37.6%.
On to `Cc1c(C)c2c(c(C)c1O)CCC(C)(C(=O)O)O2` (stereo unspecified), for which, in [10], the Activity amounted to 95.5%.
On to `COC(=O)/C(=C(/C(=O)O)C(C)C)[C@@H]1CC[C@@H]2CN(C)C(=O)[C@@]21C`, for which the outcome in assay [11] was inactive. Moreover, the IC50 in assay [2], in assay [3], in assay [4], in assay [7] and in assay [8] was greater than 40 µM in each case.
`CC(C)[C@@H]1[C@@H]([C@@H]2CC[C@@H]3CN(C)C(=O)[C@@]32C)C(=O)O[C@H]1O`: the result in [11] was inactive. For the same compound, the half-maximal inhibitory concentration (IC50) in assay [2], in assay [3], in assay [4], in [7] and in assay [8] was greater than 40 µM each time.
Turning to `CC(C)[C@@H]1[C@H]2OC(=O)[C@@H]1[C@@H]1CC[C@@H]3CN(C)[C@H]2[C@@]31C`, the result in assay [11] was inactive. The half-maximal inhibitory concentration (IC50) in [2], in assay [3], in assay [4], in [7] and in [8] was greater than 40 µM each time.
As to `COc1ccc(CCc2cc(OC)c3c(c2)O[C@@H](c2ccc(O)c(OC)c2)[C@H](CO)O3)cc1`, the result in assay [11] was inactive. Moreover, the concentration for half-maximal inhibition (IC50) in assay [2], in assay [3], in [4], in [7] and in assay [8] was greater than 40 µM throughout. The inhibition entry in assay [6] was “inactive”. Also, the Activity in [9] amounted to 9.56%.
In the case of `CC(=O)O[C@H]1C(=O)[C@@]2(C)[C@H]([C@H](OC(=O)c3ccccc3)[C@]3(O)C[C@H](OC(=O)[C@H](O)[C@@H](NC(=O)c4ccccc4)c4ccccc4)C(C)=C1C3(C)C)[C@]1(OC(C)=O)CO[C@@H]1C[C@@H]2O` [PACLITAXEL], the 50% inhibitory concentration (IC50) in [2], in assay [3], in [4], in assay [7] and in assay [8] was less than 0.008 µM throughout.
On to `CC(C)C1=C(O)C(=O)[C@@]2(C)[C@@H]3CC[C@H]2[C@H]1C(=O)NC3`, for which the outcome in assay [11] was inactive. Also, the IC50 in assay [2], in assay [3], in [4], in [7] and in assay [8] was greater than 40 µM each time.
With `COc1ccc(CCc2cc(O)c(-c3c(OC)cc([C@@H]4OO[C@H]4CO)cc3OC)c(OC)c2)cc1`, in [11], the result was inactive. In addition, the half-maximal inhibitory concentration (IC50) amounted to 5.3 µM in assay [2]; 4.7 µM in [3]; 5.1 µM in [4]; 4.4 µM in assay [7]; 2.3 µM in [8]. The inhibition result in assay [6] is “Active”. In assay [9], the Activity is 18.1%.
For `CC(C)C1=C(O)C(=O)[C@@]2(C)[C@@H]3CC[C@H]2[C@H]1C(=O)N(C)C3`, in [11], the result was inactive. In addition, the half-inhibitory concentration (IC50) in assay [2], in assay [3], in assay [4], in assay [7] and in assay [8] was greater than 40 µM in each case.
As for `COc1ccc(CCc2cc(OC)c(O[C@H](CO)[C@@H](O)c3ccc(O)c(OC)c3)c(OC)c2)cc1`, the result in assay [11] was inactive. Further, the IC50 in assay [2], in [3], in assay [4], in assay [7] and in assay [8] was greater than 40 µM throughout. In addition, the inhibition entry in [6] was “Active”. The Activity in assay [9] is 27.6%.
Consider `CC(C)C[C@@H](C=O)NC(=O)[C@H](CC(C)C)NC(=O)[C@H](CC(C)C)NC(=O)OCc1ccccc1` [MG-132] (Cbz-Leu-Leu-Leu-aldehyde), for which, in assay [1], the IC50 stood at 0.2 µM.
Take `CC(C)[C@H]1[C@@H]2C(=O)O[C@H]1[C@@]1(O)N(C)C[C@H]3CC[C@@H]2[C@]31C`: the result in assay [11] was inactive. Further, the half-maximal inhibitory concentration (IC50) in [2], in assay [3], in assay [4], in assay [7] and in [8] was greater than 40 µM each time.

(Values after ChEMBL document CHEMBL4138264, “Seco-Dendrobine-Type Alkaloids and Bioactive Phenolics from Dendrobium findlayanum” (J Nat Prod, 2018).)
